# Laboratory results taken from patent US20260325617A1, “INKT Cell Modulator Liposomal Compositions and Methods of Use” (priority 2023, published 2026).
# “And” between values parts separate entries of the source, which are not always exact repeats. Equal values may be shown once. Read-outs that look alike come from different tables or passages of the source.
# Experiments:
# [1] = Mouse pharmacokinetics of IMM60 after i.v. liposomal or soluble IMM60 (Example 7); type: in vivo, mouse (C57BL/6 and CD1)
# Experimental: The two strains of mice that were compared were CD1 mice (not to be confused with CD1d-KO mice) and C57BL/mice. The half-life, volume of distribution, clearance, AUC, and Cmax were calculated using the one-compartmental model with first-order kinetics.
# Lipid formulation: DSPG:DSPC:IMM60 (3.44:4.37:1 mg/ml) in a 250 mM sucrose, 145 mM NaCl, 10 mM sodium phosphate, pH 6.5 buffer. Before use, Vials of liposomal IMM60 were thawed at room temperature (21° C.-22° C.), then heated to 55° C. for 10 minutes using a heated water bath. Vials were mixed by inversion six times, cooled to room temperature, and diluted to either 100 ng/ml or 10,000 ng/ml using injection grade saline (0.9% NaCl).
# Soluble IMM60: Lyophilized material was resuspended in Chloroform:methanol:water (10:10:3) to 10 mg/ml (vials of 100 μg in 10 μl) swirled around to capture all the material and then Vehicle solution (150 mM NaCl, 0.5% Tween20 in distilled water) added quickly to a final concentration of 100 μg/ml (for 100 μg in 10 μl, added 990 μl of Vehicle), then then heated to 80-90° C. for 5 minutes, and sonicated with a waterbath sonicator for 5 minutes. Samples were diluted to 10,000 ng/ml using injection grade saline.
# Mice were warmed up for 20-30 minutes in cages place in a 37° C. heating chamber. Mice within each group were injected intravenously, using 27G insulin syringe needles, with 100 μl (C57BL/mice) or 150 μl (CD-1 mice) of the recorded dose over approximately 4 seconds.
# Plasma samples were analyzed by LC/MS/MS at Frontage Laboratories. […] The method uses alpha GalCer (analog to IMM60) as an internal standard and the mass spectroctoscopic ionization is electrospray in the positive ionization mode. The range of calibration standards is between 1 ng/mL to 1000 ng/mL IMM60 in mouse plasma.
# Plasma concentrations were measured 10 and 180 minutes after IV administration. The half-life, clearance, and AUC(0-∞) were calculated using the one-compartmental model with first-order kinetics since only two time points were samples along the PK profile. Using these assumptions allow for the calculation of PK parameters. Other assumption is that the T10 minutes is substituted for T0 and C10 minutes is substituted for C0 and Cmax to solve for PK parameters of liposomal IMM60.
# Statistical Calculations: the mean, standard deviation (SD), standard error of the mean (SE), p-value from the t-test (equal or unequal variances) was calculated using Microsoft Excel 201 (Microsoft Corporation). Equal or unequal variances were chosen based on use of the F-test function. All t-test comparisons were performed with the 1000 ng IMM60 in liposome form as the control. Half-life T(1/2) in Mouse of IMM60: The half-life for mice of IMM60 is calculated using Equation 1 using the one-compartment model with 1st order kinetics.
# [2] = test system: iNKT cells / immune cells; assay: PD-1 / PD-L1 upregulation on immune cells by soluble IMM60
# [3] = individual mouse, C57BL/6, 1000 ng i.v., listed as IMM60 soluble
# [4] = individual mouse, CD1, 1500 ng i.v., listed as IMM60 soluble
compound,measurement,setting,value
CCCCCCCCCCCCCCCCCCCCCCCCCC(=O)N[C@@H](CO[C@H]1CC[C@H](O)[C@H](O)[C@H]1O)[C@H](O)[C@H](O)CCCCCCCCCCCCCC [soluble IMM60],Cmax,"[1]; individual mouse, C57BL/6, 1000 ng i.v., 10 min, listed as IMM60 soluble",87.7 ng/mL
same,AUC(0-∞),[1]; [3],"12,418 ng/ml/min"
same,Vd,[1]; [3],0.0114 L
same,half-life,[1]; [3],1.636 h
same,Cmax,"[1]; individual mouse, CD1, 1500 ng i.v., 10 min, listed as IMM60 soluble",105.0 ng/mL
same,AUC(0-∞),[1]; [4],"17,976 ng/ml/min"
same,Vd,[1]; [4],0.01429 L
same,half-life,[1]; [4],1.9773 h
same,Half-life and volume of distribution vs liposomal,[1]; mice,longer half-life and larger volume of distribution
same,AUC(0-inf),"[1]; mouse, plasma, iv, 0.001 mg, average, C57BL/6, 1000 ng i.v.",204 ng·h/mL
same,Cmax at 10 min,"[1]; mouse, plasma, iv, 0.001 mg, average, C57BL/6, 1000 ng i.v., 10 min",89.7 ng/mL
same,clearance,"[1]; mouse, plasma, iv, 0.001 mg, average, C57BL/6, 1000 ng i.v., read-out: Clearance",0.08 mL/min
same,half-life,"[1]; mouse, plasma, iv, 0.001 mg, average, C57BL/6, 1000 ng i.v., read-out: Half-life",1.58 h
same,Vd,"[1]; mouse, plasma, iv, 0.001 mg, average, C57BL/6, 1000 ng i.v., read-out: Vd",0.0112 L
same,AUC(0-inf),"[1]; mouse, plasma, iv, 0.001 mg, individual mouse, C57BL/6, 1000 ng i.v.",201 ng·h/mL
same,Cmax at 10 min,"[1]; mouse, plasma, iv, 0.001 mg, individual mouse, C57BL/6, 1000 ng i.v., 10 min",91.7 ng/mL
same,clearance,"[1]; mouse, plasma, iv, 0.001 mg, individual mouse, C57BL/6, 1000 ng i.v., read-out: Clearance",0.08 mL/min
same,half-life,"[1]; mouse, plasma, iv, 0.001 mg, individual mouse, C57BL/6, 1000 ng i.v., read-out: Half-life",1.52 h
same,Vd,"[1]; mouse, plasma, iv, 0.001 mg, individual mouse, C57BL/6, 1000 ng i.v., read-out: Vd",0.0109 L
same,AUC(0-inf),"[1]; mouse, plasma, iv, 0.0015 mg, average, CD1, 1500 ng i.v.",269 ng·h/mL
same,Cmax at 10 min,"[1]; mouse, plasma, iv, 0.0015 mg, average, CD1, 1500 ng i.v., 10 min",83.7 ng/mL
same,clearance,"[1]; mouse, plasma, iv, 0.0015 mg, average, CD1, 1500 ng i.v., read-out: Clearance",0.09 mL/min
same,half-life,"[1]; mouse, plasma, iv, 0.0015 mg, average, CD1, 1500 ng i.v., read-out: Half-life",2.32 h
same,Vd,"[1]; mouse, plasma, iv, 0.0015 mg, average, CD1, 1500 ng i.v., read-out: Vd",0.0192 L
same,AUC(0-inf),"[1]; mouse, plasma, iv, 0.0015 mg, individual mouse, CD1, 1500 ng i.v.",239 ng·h/mL
same,Cmax at 10 min,"[1]; mouse, plasma, iv, 0.0015 mg, individual mouse, CD1, 1500 ng i.v., 10 min",62.4 ng/mL
same,clearance,"[1]; mouse, plasma, iv, 0.0015 mg, individual mouse, CD1, 1500 ng i.v., read-out: Clearance",0.1 mL/min
same,half-life,"[1]; mouse, plasma, iv, 0.0015 mg, individual mouse, CD1, 1500 ng i.v., read-out: Half-life",2.66 h
same,Vd,"[1]; mouse, plasma, iv, 0.0015 mg, individual mouse, CD1, 1500 ng i.v., read-out: Vd",0.024 L
same,AUC(0-inf),"[1]; mouse, plasma, iv, 0.05 mg/kg, C57BL and CD1 strains, high dose",204 to 269 ng·h/mL
same,clearance,"[1]; mouse, plasma, iv, 0.05 mg/kg, C57BL and CD1 strains, high dose, read-out: Clearance",3.1 to 4.1 mL/min/kg
same,Cmax,"[1]; mouse, plasma, iv, 0.05 mg/kg, C57BL and CD1 strains, high dose, read-out: Cmax",84 to 90 ng/mL
same,half-life,"[1]; mouse, plasma, iv, 0.05 mg/kg, C57BL and CD1 strains, high dose, read-out: Half life T1/2",1.58 to 2.32 h
same,Vd,"[1]; mouse, plasma, iv, 0.05 mg/kg, C57BL and CD1 strains, high dose, read-out: Volume of distribution Vd",0.558 to 0.639 L/kg
same,AUC(0-inf),"[1]; mouse, plasma, iv, 0.05 mg/kg, mean ± SE, 1000 ng (50 μg/kg) i.v.",204 ng·h/mL
same,clearance,"[1]; mouse, plasma, iv, 0.05 mg/kg, mean ± SE, 1000 ng (50 μg/kg) i.v., read-out: Cl",0.08 mL/min and 4.09 mL/min/kg
same,Cmax,"[1]; mouse, plasma, iv, 0.05 mg/kg, mean ± SE, 1000 ng (50 μg/kg) i.v., read-out: Cmax",90 ± 2 ng/mL
same,Vd,"[1]; mouse, plasma, iv, 0.05 mg/kg, mean ± SE, 1000 ng (50 μg/kg) i.v., read-out: Vd",0.558 ± 0.012 L/kg
same,half-life,"[1]; mouse, plasma, iv, 0.05 mg/kg, mean ± SE, 1000 ng (50 μg/kg) i.v., read-out: t1/2",1.57 ± 0.06 h
same,AUC(0-inf),"[1]; mouse, plasma, iv, 0.05 mg/kg, mean ± SE, 1500 ng (50 μg/kg) i.v.",269 ng·h/mL
same,clearance,"[1]; mouse, plasma, iv, 0.05 mg/kg, mean ± SE, 1500 ng (50 μg/kg) i.v., read-out: Cl",0.09 mL/min and 3.13 mL/min/kg
same,Cmax,"[1]; mouse, plasma, iv, 0.05 mg/kg, mean ± SE, 1500 ng (50 μg/kg) i.v., read-out: Cmax",84 ± 21 ng/mL
same,Vd,"[1]; mouse, plasma, iv, 0.05 mg/kg, mean ± SE, 1500 ng (50 μg/kg) i.v., read-out: Vd",0.639 ± 0.163 L/kg
same,half-life,"[1]; mouse, plasma, iv, 0.05 mg/kg, mean ± SE, 1500 ng (50 μg/kg) i.v., read-out: t1/2",2.32 ± 0.34 h
same,PD-1 on iNKT cells,[2],upregulate the levels of PD-1 on iNKT cells
same,PD-L1 on a variety of immune cells,[2],upregulates expression of PD-L1
